Source: patent US20060121069A1, “Compositions and methods for treating hair loss using oximyl and hydroxylamino prostaglandins” (Duke University, priority 2000, published 2006)
pIC50: −log10 of the molar value.

molecular target: T1, hFP (Homo sapiens, UniProt P43088); experiment: Radioligand Binding Assay (receptor competition binding, hFP membranes); conditions: competition against 5 nM (3H) PGF2 on hFP membrane from transfected COS-7 cells; method per Reference Example 1; read-out: IC50 of the Prostaglandin
T1 construct: expressed in transfected cells; host or cells: COS-7 cells, transient transfection with LipofectAMINE; membranes prepared
T1 sequence (P43088 whole entry): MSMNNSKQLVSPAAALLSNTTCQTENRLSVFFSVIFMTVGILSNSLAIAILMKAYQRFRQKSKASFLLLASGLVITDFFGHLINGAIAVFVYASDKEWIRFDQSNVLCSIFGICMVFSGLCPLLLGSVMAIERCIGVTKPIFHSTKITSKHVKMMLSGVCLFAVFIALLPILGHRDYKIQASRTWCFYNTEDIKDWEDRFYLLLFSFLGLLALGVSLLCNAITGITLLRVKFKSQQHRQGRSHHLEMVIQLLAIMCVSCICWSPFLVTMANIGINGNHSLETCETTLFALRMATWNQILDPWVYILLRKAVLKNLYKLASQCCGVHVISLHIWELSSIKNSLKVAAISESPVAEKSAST
Method: IC50 of a prostaglandin can be determined relative to PGF2α using the Radioligand Binding Assay. As a control, the IC50 for PGF2α itself should be no lower than 1.0 nM and no higher than 5.0 nM.
In this assay, COS-7 cells are transiently transfected with the hFP recombinant plasmid using LipofectAMINE Reagent. Forty-eight hours later, the tranfected cells are washed with Hank's Balanced Salt Solution (HBSS, without CaCl2, MgCl2, MgSO4, or phenol red). The cells are detached with versene, and HBSS is added. The mixture is centrifuged at 200g for 10 minutes, at 4° C. to pellet the cells. The pellet is resuspended in Phosphate-Buffered Saline-EDTA buffer (PBS; 1 mM EDTA; pH 7.4; 4° C.). The cells are disrupted by nitrogen cavitation (Parr model 4639), at 800 psi, for 15 minutes at 4° C. The mixture is centrifuged at 1000 g for 10 minutes at 4° C. The supernatant is centrifuged at 100,000 g for 60 minutes at 4° C. The pellet is resuspended to 1 mg protein/mL TME buffer (50 mM Tris; 10 mM MgCl2; 1 mM EDTA; pH 6.0; 4° C.) based on protein levels measured using the Pierce BCA Protein Assay kit. The homogenate is mixed for 10 seconds using a Kinematica POLYTRON® (available from KINEMATICA AG, Luzernerstrasse147A CH-6014 Littau, Switzerland). The membrane preparations are then stored at −80° C., until thawed for assay use.
The receptor competition binding assays are developed in a 96 well format. Each well contains […] of hFP membrane, 5 nM (3H) PGF2, and the various competing compounds in a total volume of […]. The plates are incubated at 23° C. for 1 hour. The incubation is terminated by rapid filtration using the Packard Filtermate 196 harvester through Packard UNIFILTER® GF/B filters (available from Packard Instrument Co., Inc. of Downers Grove Ill.) pre-wetted with TME buffer. The filter is washed four times with TME buffer. […] The plates are read on a Packard TOPCOUNT® Microplate Scintillation Counter (also available from Packard Instrument Co., Inc.)

O=C(O)CCCCCC[C@H]1[C@@H](O)C/C(=N/O)[C@@H]1CC[C@@H](O)CSc1ccccc1 was tested. Which pIC50 did it give?
The pIC50 was 6.79.

How did the pIC50 turn out when CCCCC[C@H](O)/C=C/[C@H]1/C(=N\O)C[C@H](O)[C@@H]1C/C=C\CCCC(=O)O [Example 1-1] was run?
Its pIC50 is 7.82.

With CCCCC[C@H](O)/C=C/[C@H]1C(NO)C[C@H](O)[C@@H]1C/C=C\CCCC(=O)O (stereo partly drawn) [Example 1-2] as the compound, how does the pIC50 read?
The pIC50 was 6.82.
